Assay results: the supplement of paper PMC10949913

Columns and labels:
Test in all cases: area under concentration-response curve (viability) (AUC (a.u.)); higher = less active
Settings in all cases: 48 h
NCI-H295R = system: NCI-H295R
Outline: (§1)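 Three adrenocortical carcinoma cell lines were plated in 1,536-well plates at 500–1,000 cells/well in 5 µL medium, and 23 nL of each library compound was added at 11 concentrations. After 48 h, CellTiter-Glo was applied for 15 minutes at room temperature before luminescence was read. Each plate's signals were normalised to vehicle and empty-well controls. AC50 and area under the curve were taken from fitted concentration-response curves, with only inhibitory or non-responding curve classes retained.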

CU-ACC2 = system: CU-ACC2
Outline: as §1

CU-ACC1 = system: CU-ACC1
Outline: as §1

| Compound | area under concentration-response curve (NCI-H295R) | area under concentration-response curve (CU-ACC2) | area under concentration-response curve (CU-ACC1) |
| --- | --- | --- | --- |
| NNC(=O)c1ccncc1 | 554 | 500 |  |
| CNC(=O)c1ccc(N2C(=S)N(c3ccc(C#N)c(C(F)(F)F)c3)C(=O)C2(C)C)cc1F | 499 | 559 |  |
| NC/1=N/C2=C(N=C[N]2[C@H]3C[C@H](O)[C@@H](CO)C3=C)C(=O)N1 | 521 | 589 |  |
| NC(=O)C/1=C(O)/[C@]2(O)[C@@H](C[C@@H]\3CC4=C(C(=CC=C4)O)\C(=C3C2=O)O)CC1=O | 586 | 640 |  |
| Cc1cc(O)c2c(c1)C(=O)c1cccc(O)c1C2=O | 552 | 604 |  |
| O=C(O)CCNc1cc(N2CCc3ccccc3CC2)nc(-c2ccccn2)n1 | 490 | 486 |  |
| CC[S+]([O-])(=O)N1CCC(CC1)C(C)[N]2C(=C(C(=O)NC\C3=C(OC)\C=C(\C)NC3=O)C4=C2C=CC=C4)C (stereo unspecified) | 511 | 562 |  |
| CC/1=C/2C[C@H]3C(=C)CCC[C@]3(C)/C=C2OC1=O | 524 | 593 |  |
| C#Cc1cccc(Nc2ncnc3cc(OCCOC)c(OCCOC)cc23)c1 | 550 | 623 |  |
| CC(C)(O)CCc1ccc(OCc2cc(-c3cccc(OC(F)F)c3)c3ncccc3c2)cc1 |  | 586 | 543 |
| CCC\C1=C\C(=O)NC(=S)N1 |  | 545 | 467 |
| CN[C@H]1CN(C[C@@H]1OC)C2=NC3=C(C=C2)C(=O)C(=C\N3C4=NC=CS4)/C(O)=O |  | 632 | 530 |
| CCN(c1ccccc1)c1cc(NC)[n+](C)c(C)n1 |  | 600 | 574 |
| OC[C@H]1O[C@@H](O[C@@H]2O\C=C(/[C@H]3C\C=C(CO)/[C@@H]23)C(O)=O)[C@H](O)[C@@H](O)[C@@H]1O |  | 594 | 538 |
| COc1cc(/C=C(\C#N)C(=O)Nc2nnc(C(F)(F)F)s2)ccc1OCc1ccc(C(F)(F)F)cc1C(F)(F)F |  | 488 | 450 |
| CC(C)NCCCn1c(Sc2cc(Cl)cc(Cl)c2)nc2c(N)ncnc21 |  | 572 | 511 |
| CC(C)N(C[C@H]1O[C@@H](n2cnc3c(N)ncnc32)[C@H](O)[C@@H]1O)[C@H]1C[C@@H](CCc2nc3cc(C(C)(C)C)ccc3[nH]2)C1 |  | 598 | 543 |
| CCc1ccc(N(CC(C)C)[S+](=O)([O-])c2ccc(OCC3CCOCC3)c(CO)c2)cc1 |  | 586 | 466 |
| COc1ncnc(N[S+](=O)([O-])c2ccc(N)cc2)c1OC |  | 604 | 593 |
| CN(C)C(=N)NC(=N)N |  | 572 | 550 |

| Compound | area under concentration-response curve (NCI-H295R) | area under concentration-response curve (CU-ACC2) | area under concentration-response curve (CU-ACC1) |
| --- | --- | --- | --- |
| CC[C@@]1([C@@H]2O[C@@H]([C@H]3O[C@@](O)(CO)[C@H](C)C[C@@H]3C)C[C@@H]2C)CC[C@H]([C@]2(C)CC[C@]3(C[C@H](O)[C@@H](C)[C@@H]([C@@H](C)[C@@H](OC)[C@H](C)C(=O)[O-])O3)O2)O1 |  | 410 | 427 |
| Nc1nnc(-c2cccc(Cl)c2Cl)c(N)n1 |  | 630 | 563 |
| CC(C)Cc1ccc(C(C)C(=O)O)cc1 (stereo unspecified) |  | 583 | 539 |
| CCCCOc1ccc(C(=O)Nc2ccc(F)cc2F)cc1 |  | 586 | 514 |
| CCc1nc(-c2cccc(C)c2)c(-c2ccnc(NC(=O)c3ccccc3)c2)s1 |  | 574 | 490 |
| CNC(=O)c1ccc(N2C(=S)N(c3cnc(C#N)c(C(F)(F)F)c3)C(=O)C23CCC3)cc1F |  | 565 | 505 |
| CCN1CCCC1CNC(=O)c1cc([S+](=O)([O-])CC)c(N)cc1OC (stereo unspecified) |  | 591 | 561 |
| O=P(O)(O)C(O)(Cn1ccnc1)P(=O)(O)O |  | 679 | 628 |
| CN1CCN(CC1)C2=CC=C(NC3=NC=C4\C=C(\C#N)C(=O)N(C5CCCC5)C4=N3)C=C2 |  | 588 | 548 |
| CC1(C)O[C@@H]2C[C@H]3[C@@H]4C[C@H](F)C/5=C/C(=O)/C=C\[C@]5(C)[C@@]4(F)[C@@H](O)C[C@]3(C)[C@@]2(O1)C(=O)CO |  | 586 | 485 |
| CN1C(=N)N[C@](C)(c2cc(NC(=O)c3ccc(F)cn3)ccc2F)C[S+]1(=O)[O-] |  | 611 | 563 |
| O=C1CC(c2c[nH]c3ccc(F)cc23)C(=O)N1 (stereo unspecified) |  | 424 | 465 |
| CN1CCC(=C2c3ccccc3CC(=O)c3sccc32)CC1 |  | 537 | 557 |
| N#Cc1ccc(NC(=O)Nc2ccccc2Br)c2nn[nH]c12 |  | 638 | 573 |
| CC(C)(C)c1cc(C=C(C#N)C#N)cc(Br)c1O |  | 583 | 552 |
| CC/C(=C(/c1ccc(/C=C/C(=O)O)cc1)c1ccc2[nH]ncc2c1)c1ccc(F)cc1Cl |  | 508 | 501 |
| C[C@H]1CN(C[C@@H](C)O1)CC(=O)NC2=CC=C3SC4=C(CC3=C2)C=CC=C4\C5=C\C(=O)\C=C(/O5)N6CCOCC6 |  | 428 | 439 |
| CCC(=O)OCC(=O)C1(OC(=O)CC)C(C)CC2C3CC\C4=C\C(=O)\C=C/C4(C)C3(F)C(O)CC12C (stereo unspecified) |  | 613 | 528 |
| COc1ccnc(C[S+]([O-])c2nc3cc(OC(F)F)ccc3[nH]2)c1OC (stereo unspecified) |  | 585 | 554 |
| COC1=C(CN(C)C)C=C(OC)C(=C1)C/2=C/N(C)C(=O)C3=C2C=CN=C3 |  | 597 | 516 |

| Compound | area under concentration-response curve (NCI-H295R) | area under concentration-response curve (CU-ACC2) | area under concentration-response curve (CU-ACC1) |
| --- | --- | --- | --- |
| Clc1ccc(COC(Cn2ccnc2)c2ccc(Cl)cc2Cl)c(Cl)c1 (stereo unspecified) |  | 308 | 265 |
| CCCCC[C@H](O)/C=C/[C@H]1[C@H](O)CC(=O)[C@@H]1CCCCCCC(=O)O |  | 612 | 402 |
| O=C(Nc1ccc(OC(F)(F)F)cc1)c1sccc1NCc1ccnc2ccccc12 |  | 639 | 525 |
| C[N]1C=C(C2=CC=CC=C12)\C3=C(\C(=O)NC3=O)C4=C[N](C5CCN(CC5)CC6=NC=CC=C6)C7=C4C=CC=C7 |  | 500 | 494 |
| c1ccc(-c2nn3c(c2-c2ccnc4cc(OCCN5CCOCC5)ccc24)CCC3)nc1 |  | 496 | 479 |
| CN(Cc1cc(Br)cc(Br)c1N)C1CCCCC1 |  | 526 | 383 |
| c1ccc2c(Cc3c[nH]c4ccccc34)c[nH]c2c1 |  | 574 | 505 |
| CCO[C@@H]1OC(=O)C[C@@H]1NC(=O)[C@@H]1CCCN1C(=O)[C@@H](NC(=O)c1ccc(N)c(Cl)c1)C(C)(C)C |  | 518 | 493 |
| COc1ccc2[n-]c([S+]([O-])Cc3ncc(C)c(OC)c3C)nc2c1 (stereo unspecified) |  | 398 | 387 |
| CCOC(=O)N[C@@H]1CC[C@@H]2[C@@H](C1)C[C@H]1C(=O)O[C@H](C)[C@H]1[C@H]2/C=C/c1ccc(-c2cccc(F)c2)cn1 |  | 511 | 537 |
| CC1=C(/C=C/C(C)=C/C=C/C(C)=C\C(=O)O)C(C)(C)CCC1 |  | 586 | 491 |
| Nc1ncnc2c1nc(Cl)n2[C@@H]1O[C@H](CO)[C@@H](O)[C@H]1O |  | 542 | 471 |
| CCCCOc1nc(N)c2c(n1)N(Cc1cccc(CN3CCCC3)c1)CC(=O)N2 |  | 506 | 538 |
| CCOCc1nc2c(N)nc3ccccc3c2n1CC(C)(C)O |  | 562 | 510 |
| COc1ccc2[nH]c([S+]([O-])Cc3ncc(C)c(OC)c3C)nc2n1 (stereo unspecified) |  | 637 | 542 |
| COCCCOc1cc(C[C@@H](C[C@H](N)[C@@H](O)C[C@H](C(=O)NCC(C)(C)C(N)=O)C(C)C)C(C)C)ccc1OC |  | 648 | 564 |
| C[C@H](NC1=NC=NC2=C1[NH]C=N2)\C3=N\C4=C(C=C(F)C=C4)C(=O)N3C5=CC=CC=C5 |  | 280 | 344 |
| O=C(C1CC1)N1CC[C@@H](Cn2c(-c3ccc(-c4ccc5occc5c4)cc3)nc3cnccc32)C1 |  | 486 | 505 |
